Experimental data as given in ChEMBL document CHEMBL4130554, “Inducing Secondary Metabolite Production by Combined Culture of Talaromyces aculeatus and Penicillium variabile” (J Nat Prod, 2017).

What was measured:
[1] = test system: HeLa; assay: Cytotoxicity against human HeLa cells by SRB method; type: functional, cell-based
[2] = test system: MCF7; assay: Cytotoxicity against human MCF7 cells by SRB method; type: functional, cell-based
[3] = test system: HCT-116; assay: Cytotoxicity against human HCT116 cells by SRB method
[4] = test system: HL-60; assay: Cytotoxicity against human HL60 cells by MTT method
[5] = test system: K562; assay: Cytotoxicity against human K562 cells by MTT method; type: functional, cell-based
[6] = test system: A549; assay: Cytotoxicity against human A549 cells by SRB method

Structure (SMILES)	IC50 [1]	IC50 [2]	IC50 [3]	IC50 [4]	IC50 [5]	IC50 [6]
CC[C@H](C)/C=C/C=C(\C)C[C@@H](C)/C=C/C=C/[C@H]1OC(=O)[C@H](O)[C@@H]2O[C@]12C	> 50 µM	> 50 µM	> 50 µM	> 50 µM	> 50 µM	> 50 µM
COC(=O)[C@@H]1O[C@@H](/C=C/C=C/[C@H](C)C/C(C)=C/C=C/[C@@H](C)CCO)[C@@]2(C)O[C@@H]12	> 50 µM	> 50 µM	> 50 µM	> 50 µM	> 50 µM	> 50 µM
CC[C@H](C)/C=C/C=C(\C)C[C@@H](C)/C=C/C=C/[C@H]1OC(=O)C=C[C@]1(C)O	5.5 µM	9.8 µM	1.4 µM	1.2 µM	2.9 µM	5.1 µM
COc1cccc2c1C(=O)c1c(O)c3c(c(O)c1C2=O)C[C@@](O)(C(=O)CO)C[C@@H]3O[C@H]1C[C@H](N)[C@H](O)[C@H](C)O1 [DOXORUBICIN]	0.5 µM	0.6 µM			0.6 µM	
CC[C@H](C)/C=C/C=C(\C)C[C@@H](C)/C=C/C=C/[C@@H]1O[C@@H](C(=O)OC)[C@@H]2O[C@]12C	> 50 µM	> 50 µM	> 50 µM	> 50 µM	> 50 µM	> 50 µM
CC[C@@H](/C=C/C=C(\C)C[C@@H](C)/C=C/C=C/[C@@H]1O[C@@H](C(=O)OC)[C@@H]2O[C@]12C)CO	> 50 µM	> 50 µM	> 50 µM	> 50 µM	> 50 µM	> 50 µM
